{"source": "patent US8829213B2", "about": "“Liver X receptor agonists” (The University of Chicago, priority 2009, dated 2014)", "key": {"[1]": {"system": "human LXRα or LXRβ", "test": "Luciferase-based reporter gene assay for LXR agonism", "type": "cell-based", "conditions": "HEK293 cells co-transfected with human LXRα or LXRβ, 48 hours", "protocol": "The ability of Compound 1 to act as an LXR agonist was tested using a luciferase-based reporter gene assay according to the method described in Graham et al., Virology, 1973, 52:456. The assay is described below:\nWells of a 48-well plate were seeded with 50,000 human embryonic kidney (HEK293) cells in 0.25 mL of Dulbecco's modified Eagle's media containing 10% charcoal-stripped fetal bovine serum (DMEM+10% CS-FBS). HEK293 cells were co-transfected with various plasmid DNAs using a calcium phosphate co-precipitation method (Graham et al., Virology, 1973, 52:456). To each well was added 0.25 mL of a transfection mix (1.36 mL transfection components and 11.5 mL DMEM+10% CS-FBS) containing 60 ng of a firefly luciferase-based reporter plasmid, 60 ng of pSG5 containing human LXRα or LXRβ cDNA, 0.6 ng of the sea pansy luciferase normalization plasmid phRL-TK (Promega), and 220 ng of pBS/SK+II. […] Firefly and sea pansy luciferase activities in the lysate were measured using a dual luciferase assay (Promega) and a Monolight luminometer. […] Fold activation of the firefly luciferase reporter plasmid was calculated from normalized relative light units in the presence and absence of the test compound."}, "[2]": {"system": "LDLR−/− mice", "test": "Reduction of plasma cholesterol and triglyceride levels in LDLR−/− mice fed an atherogenic diet", "type": "in vivo", "conditions": "8 weeks", "protocol": "(§1) Eight-week old male LDLR−/− mice on a C57BL/6 background (obtained from Jackson Laboratory) were fed an atherogenic diet (TD94059, Harlan TEKLAD, Madison, Wis.) for 8 weeks. During the same period, the mice received Compound 1 daily by gavage at a dose of 3 or 5 mg/kg in a microemulsion prepared by the method described in Gao et al., Int J Pharm 1998, 161:75-86). The control group (vehicle) received a microemulsion without Compound 1. After 8 weeks, the mice were fasted for 4 hours and anesthetized with ketamine (100 mg/kg) and xylazine (10 mg/kg). A blood sample was collected from the retro-orbital plexus of each mouse. 200 μl of plasma was fractionated on tandem Superose 6 fast protein liquid chromatography columns (Reardon et al., 2001). Cholesterol and triglyceride in the even-numbered fast protein liquid chromatography fractions and in plasma samples were measured using commercial kits (Stanbio Laboratory, Boerne, Tex.)."}, "[3]": {"system": "LDLR−/− mice", "test": "Atherosclerotic lesion quantification in LDLR−/− mice fed an atherogenic diet", "type": "in vivo", "conditions": "8 weeks", "protocol": "as §1\nThe mice were then perfused transcardially with PBS and then paraformaldehyde. The hearts and upper vasculatures were removed and prepared for histology as described in Reardon et al., Arterioscler Thromb Vasc Biol 2001, 21:1011-1016.\nLesions in the innominate artery were quantified using 4 digitally captured oil red O-stained 10 μm sections, separated by 100 μm and located 150-450 μm distal to the branch point of the innominate artery from the aortic arch. Lesions in the ascending thoracic aorta were assessed from three sections separated by 100 μm and located 100-300 μm below the apex of the lesser curvature of the aortic arch. Aortic sinus lesions were evaluated from 3 sections, separated by 100 μm and beginning at the site of appearance of the coronary artery. OpenLab software version 3.1.5 was used in the quantification."}, "[4]": {"conditions": "daily gavage 3 or 5 mg/kg, vs vehicle"}}, "data": [{"molecule": "CC(/C=C/C(O)(C(F)(F)F)C(F)(F)F)C1CCC2C3C[C@H](O)[C@@H]4C[C@H](O)CCC4(C)C3CCC12C", "note": "(some centres unmarked) [Compound 1]", "values": [{"measurement": "LXR agonist activity (fold activation of firefly luciferase reporter)", "setting": "[1]", "result": "very effective LXR agonist"}, {"measurement": "HDL cholesterol level", "setting": "[2]; 3 mg/kg daily gavage", "result": "not"}, {"measurement": "VLDL cholesterol level", "setting": "[2]; 3 mg/kg daily gavage", "result": "reduced"}, {"measurement": "triglyceride levels", "setting": "[2]; 3 mg/kg daily gavage", "result": "reduced"}, {"measurement": "HDL cholesterol level", "setting": "[2]; 5 mg/kg daily gavage", "result": "not"}, {"measurement": "LDL cholesterol level", "setting": "[2]; 5 mg/kg daily gavage", "result": "reduced"}, {"measurement": "VLDL cholesterol level", "setting": "[2]; 5 mg/kg daily gavage", "result": "reduced"}, {"measurement": "triglyceride levels", "setting": "[2]; 5 mg/kg daily gavage", "result": "reduced"}, {"measurement": "cholesterol level in the blood", "setting": "[2]; [4]", "result": "marked decrease"}, {"measurement": "triglyceride level in the blood", "setting": "[2]; [4]", "result": "marked decrease"}, {"measurement": "mean atherosclerotic lesion area, aortic root", "setting": "[3]; 3 mg/kg/day", "result": "significantly reduced"}, {"measurement": "atherosclerotic plaque size, ascending aorta arch", "setting": "[3]; 5 mg/kg/day", "result": "significantly reduced"}, {"measurement": "atherosclerotic plaque size, innominate artery", "setting": "[3]; 5 mg/kg/day", "result": "significantly reduced"}, {"measurement": "mean atherosclerotic lesion area, aortic root", "setting": "[3]; 5 mg/kg/day", "result": "significantly reduced"}]}]}
